Data as given in US20220402948A1, “EGFR INHIBITOR, COMPOSITION AND PREPARATION METHOD THEREFOR” (BETTA PHARMACEUTICALS CO., LTD., priority 2019, published 2022).

Assays:
[1] = target: Ba/F3 cells with EGFR Δ19del/T790M/C797S mutation gene stably overexpressed (Homo sapiens, UniProt P00533, T790M/C797S, cells depend on it, form not given); experiment: Ba/F3-Δ19del/T790M/C797S cell proliferation assay (CellTiter Glo, 72 hours); assay type: cell-based; conditions: Table 2, read-out: EGFR Δ19del/T790M/C797S IC50
Experimental: (§1) Cell line: Ba/F3 cells with EGFR Δ19del/T790M/C797S mutation gene stably overexpressed named Ba/F3-Δ119del/T90M/C797S, and A431 and Ba/F3-EGFR wild-type cell line.
(§2) a) Centrifuge the growth cells in logarithmic phase at 1000 rpm for 5 minutes, resuspend the cells in culture medium, and then count the cells;
(§3) b) Inoculate the cells into a 96-well cell culture plate with a density of 2000 cells/well;
(§4) b) Incubate cells in an incubator for another 72 hours.
(§5) a) Take out the 96-well cell culture plate and add 50 μl CTG reagent (CellTiter Glo kit, promega, Cat #G7573);
(§6) b) Shake the plate for 2 minutes and let cool at room temperature for 10 minutes;
(§7) c) Read luminous signal value with PerkinElmer reader,
(§8) Analysis of Experimental Data
(§9) The data were analyzed by GraphPad Prism 6.0 software to obtain the fitting curve of compound activity.
(§10) Y=Min+(Max−Min)/(1+10^((Log IC50−X)*slope));
(§11) X: Logarithm of compound concentration; Y: luminous signal.

[2] = target: IGF1R (Homo sapiens, UniProt P08069); experiment: IGF1R kinase test (mobility variation analysis, Caliper EZ Reader); assay type: biochemical; conditions: kinase enzymatic activity, Table 1; read-out: EGFR IGF1R IC50
Outline: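 Kinase preincubated 10 min at room temperature with compound (10-point 3-fold series, top 3000 nM), then ATP and substrate added and reacted at room temperature. Substrate conversion read by mobility-shift (Caliper EZ Reader); % inhibition vs no-enzyme and no-compound controls fitted to variable-slope curve for IC50.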

[3] = target: EGFRΔ19del/T790M/C797S (Homo sapiens, UniProt P00533, T790M/C797S, form not given); experiment: EGFR Δ19del/T790M/C797S kinase test (mobility variation analysis, Caliper EZ Reader); assay type: biochemical; conditions: kinase enzymatic activity, Table 1
Outline: (§12)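 Kinase pre-incubated with compound 10 minutes at room temperature, then ATP plus peptide substrate added; substrate conversion read by mobility shift after stop solution. Percent inhibition normalized to no-compound and no-enzyme controls; IC50 from variable-slope log(inhibitor) fit.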

[4] = system: A431; experiment: A431 cell proliferation assay (CellTiter Glo, 72 hours); assay type: cell-based; conditions: Homo sapiens, A-431, 72 h, cell proliferation, A431, 72 hours, Table 2; read-out: A431 IC50
Experimental: as §1
RPMI 1640 and 10% FBS and 1% PS; DMEM and 10% FBS and 1% PS.
a) Dilute the test compound (20 mM stock solution) to 10 mM with 100% DMSO as the starting concentration, and then serially dilute 3 times with a “9+0” concentration in 96-well dilution plate (Cat #P-05525, Labcyte);
b) Dilute compound solution thereof to 1:100 (1:20 for comparative compound 1 and compounds 1-38) in medium to prepare 10-fold working solution;
as §2, §3
a) Compounds prepared at step 2 were added to cell plate with 15 μl per well, the final concentrations were 1000, 333, 111.1, 37, 12.3, 4.1, 1.4, 0.5, 0.2 and 0 nM, and the final concentration of DMSO was 0.1%. The blank control well was a culture medium (0.1% DMSO) (the blank control well of comparative compound 1 and compounds 1-38 was a culture medium (0.5% DMSO).
as §4, §5, §6, §7, §8, §9
Fitting compound IC50 from nonlinear regression equation:
as §10, §11

[5] = target: EGFR WT (Homo sapiens, UniProt P00533); experiment: EGFR WT kinase test (mobility variation analysis, Caliper EZ Reader); assay type: biochemical; conditions: kinase enzymatic activity, Table 1
Outline: as §12

Chain of EGFR WT (P00533 25-1210): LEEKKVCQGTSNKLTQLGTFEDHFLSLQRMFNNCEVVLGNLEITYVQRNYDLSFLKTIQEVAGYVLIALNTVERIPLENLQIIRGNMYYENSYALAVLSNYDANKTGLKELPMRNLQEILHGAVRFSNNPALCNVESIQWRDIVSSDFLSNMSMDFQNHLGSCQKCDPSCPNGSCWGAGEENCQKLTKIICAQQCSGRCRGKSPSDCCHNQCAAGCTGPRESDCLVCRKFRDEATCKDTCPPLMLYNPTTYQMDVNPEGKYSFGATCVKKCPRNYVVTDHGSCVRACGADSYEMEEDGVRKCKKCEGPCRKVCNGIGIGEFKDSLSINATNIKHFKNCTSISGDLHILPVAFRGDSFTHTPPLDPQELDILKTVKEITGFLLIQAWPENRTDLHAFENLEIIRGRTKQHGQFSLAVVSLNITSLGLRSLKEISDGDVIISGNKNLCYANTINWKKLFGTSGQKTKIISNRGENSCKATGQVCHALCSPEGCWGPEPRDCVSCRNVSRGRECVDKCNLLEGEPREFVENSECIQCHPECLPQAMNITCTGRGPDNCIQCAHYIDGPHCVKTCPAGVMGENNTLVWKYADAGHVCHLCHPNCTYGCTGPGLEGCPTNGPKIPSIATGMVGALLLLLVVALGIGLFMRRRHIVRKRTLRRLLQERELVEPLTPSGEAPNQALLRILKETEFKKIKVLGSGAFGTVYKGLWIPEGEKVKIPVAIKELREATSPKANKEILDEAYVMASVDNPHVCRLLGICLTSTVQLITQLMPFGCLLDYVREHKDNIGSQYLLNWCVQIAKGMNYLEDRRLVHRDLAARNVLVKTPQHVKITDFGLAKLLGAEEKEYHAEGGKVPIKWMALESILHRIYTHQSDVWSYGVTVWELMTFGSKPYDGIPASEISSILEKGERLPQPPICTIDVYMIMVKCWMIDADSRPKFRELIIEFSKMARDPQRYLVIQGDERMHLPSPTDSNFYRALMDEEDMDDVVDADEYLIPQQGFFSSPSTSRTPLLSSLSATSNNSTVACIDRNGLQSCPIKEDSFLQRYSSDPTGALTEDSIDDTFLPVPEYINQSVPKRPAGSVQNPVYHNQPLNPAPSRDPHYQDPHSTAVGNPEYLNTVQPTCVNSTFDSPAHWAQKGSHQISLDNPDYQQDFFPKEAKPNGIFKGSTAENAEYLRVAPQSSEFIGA
Chain of Ba/F3 cells with EGFR Δ19del/T790M/C797S mutation gene stably overexpressed (P00533 with tags, fused parts or gaps DEL746-750/T790M/C797S, form open): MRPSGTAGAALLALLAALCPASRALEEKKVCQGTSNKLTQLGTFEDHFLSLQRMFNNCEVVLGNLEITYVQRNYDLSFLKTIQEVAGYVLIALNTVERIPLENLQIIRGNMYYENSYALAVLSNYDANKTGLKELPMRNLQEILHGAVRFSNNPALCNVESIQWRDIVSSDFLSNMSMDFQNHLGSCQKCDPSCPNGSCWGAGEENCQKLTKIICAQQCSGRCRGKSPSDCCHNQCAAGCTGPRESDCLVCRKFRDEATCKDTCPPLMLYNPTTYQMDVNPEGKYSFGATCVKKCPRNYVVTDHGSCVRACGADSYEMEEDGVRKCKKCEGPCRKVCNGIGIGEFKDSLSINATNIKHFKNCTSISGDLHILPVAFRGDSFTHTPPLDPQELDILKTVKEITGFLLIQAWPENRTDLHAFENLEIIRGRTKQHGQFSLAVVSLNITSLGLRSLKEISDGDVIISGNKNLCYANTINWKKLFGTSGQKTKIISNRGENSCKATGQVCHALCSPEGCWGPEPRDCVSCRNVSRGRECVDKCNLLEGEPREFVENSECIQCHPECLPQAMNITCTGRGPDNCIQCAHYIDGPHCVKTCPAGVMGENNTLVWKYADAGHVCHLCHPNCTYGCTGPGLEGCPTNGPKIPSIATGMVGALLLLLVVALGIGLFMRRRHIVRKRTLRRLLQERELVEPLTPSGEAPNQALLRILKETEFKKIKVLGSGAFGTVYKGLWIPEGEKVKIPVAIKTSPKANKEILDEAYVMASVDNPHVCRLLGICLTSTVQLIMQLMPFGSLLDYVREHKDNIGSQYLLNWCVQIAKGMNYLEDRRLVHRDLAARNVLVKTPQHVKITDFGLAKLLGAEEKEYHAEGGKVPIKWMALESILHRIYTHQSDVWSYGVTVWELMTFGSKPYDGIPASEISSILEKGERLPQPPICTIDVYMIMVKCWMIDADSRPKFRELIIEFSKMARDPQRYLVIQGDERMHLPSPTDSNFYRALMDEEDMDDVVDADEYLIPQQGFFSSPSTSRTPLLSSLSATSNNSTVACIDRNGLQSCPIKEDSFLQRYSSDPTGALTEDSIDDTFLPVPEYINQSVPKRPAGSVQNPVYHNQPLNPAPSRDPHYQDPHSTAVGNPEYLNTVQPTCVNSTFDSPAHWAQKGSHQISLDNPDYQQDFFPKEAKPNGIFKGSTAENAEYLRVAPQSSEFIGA
Chain of EGFRΔ19del/T790M/C797S (P00533 with tags, fused parts or gaps DEL746-750/T790M/C797S, form open): as above
Chain of IGF1R (P08069 31-1367, species assumed): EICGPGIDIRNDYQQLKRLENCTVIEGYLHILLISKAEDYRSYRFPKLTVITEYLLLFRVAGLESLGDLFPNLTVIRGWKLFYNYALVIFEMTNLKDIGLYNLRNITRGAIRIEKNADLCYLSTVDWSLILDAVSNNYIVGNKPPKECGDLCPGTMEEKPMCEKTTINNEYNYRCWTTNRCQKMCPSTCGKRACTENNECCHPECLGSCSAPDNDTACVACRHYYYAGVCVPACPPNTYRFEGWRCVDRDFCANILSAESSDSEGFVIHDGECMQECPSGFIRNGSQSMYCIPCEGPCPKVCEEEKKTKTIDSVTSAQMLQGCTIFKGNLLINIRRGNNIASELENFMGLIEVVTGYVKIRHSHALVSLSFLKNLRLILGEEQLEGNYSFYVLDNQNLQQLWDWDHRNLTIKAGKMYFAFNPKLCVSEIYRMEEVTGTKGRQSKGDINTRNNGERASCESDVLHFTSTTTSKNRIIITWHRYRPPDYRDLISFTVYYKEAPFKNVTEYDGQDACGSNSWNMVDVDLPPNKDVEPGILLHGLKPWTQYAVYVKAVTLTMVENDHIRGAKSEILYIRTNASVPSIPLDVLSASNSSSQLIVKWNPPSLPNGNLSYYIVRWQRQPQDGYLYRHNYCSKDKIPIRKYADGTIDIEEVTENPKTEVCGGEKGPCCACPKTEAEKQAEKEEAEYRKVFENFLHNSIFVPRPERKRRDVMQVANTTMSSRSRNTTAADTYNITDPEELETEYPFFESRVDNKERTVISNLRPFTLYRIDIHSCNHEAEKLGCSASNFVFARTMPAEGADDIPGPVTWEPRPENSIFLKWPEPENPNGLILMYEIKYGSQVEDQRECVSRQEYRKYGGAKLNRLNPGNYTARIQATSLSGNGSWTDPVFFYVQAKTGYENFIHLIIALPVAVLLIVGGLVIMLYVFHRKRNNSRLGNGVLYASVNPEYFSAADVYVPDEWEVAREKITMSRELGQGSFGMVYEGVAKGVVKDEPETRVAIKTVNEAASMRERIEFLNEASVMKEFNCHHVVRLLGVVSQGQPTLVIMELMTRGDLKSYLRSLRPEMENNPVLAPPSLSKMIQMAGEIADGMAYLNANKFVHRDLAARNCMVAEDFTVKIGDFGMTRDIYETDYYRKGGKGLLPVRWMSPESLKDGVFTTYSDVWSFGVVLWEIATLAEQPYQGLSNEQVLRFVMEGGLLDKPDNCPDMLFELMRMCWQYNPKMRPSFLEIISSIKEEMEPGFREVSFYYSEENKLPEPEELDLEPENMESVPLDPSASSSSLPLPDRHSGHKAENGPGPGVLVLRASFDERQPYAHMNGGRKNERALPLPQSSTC

GI50 [1] [nM]	IC50 [2] [nM]	IC50 [3] [nM]	IC50 [4] [nM]	IC50 [5] [nM]	Structure (SMILES)
9.7	109	0.6	14300	19.5	CCc1cc(Nc2ncc(Br)c(Nc3ccc(-c4ccc(C#N)cc4)cc3P(C)(C)=O)n2)c(OC)cc1N1CCC(N2CCN(C)CC2)CC1 [Compound 10]
24.5	335	1.3	512	38.8	CCc1cc(Nc2ncc(Br)c(Nc3ccc(-c4cn(C)nc4OC)cc3P(C)(C)=O)n2)c(OC)cc1N1CCC(N2CCN(C)CC2)CC1 [Compound 63]
15.7	186	0.3	1560	24	CCc1cc(Nc2ncc(Br)c(Nc3ccc(-c4cnc(N(C)C)nc4)cc3P(C)(C)=O)n2)c(OC)cc1N1CCC(N2CCN(C)CC2)CC1 [Compound 74, (2-((5-Bromo-2-((5-ethyl-2-methoxy-4-(4-(4-methylpiperazin-1-yl)piperidin-1-yl)phenyl)amino)pyrimidin-4-yl)amino)-5-(2-(dimethylamino)pyrimidin-5-yl)phenyl)dimethylphosphine oxide]
26.2	124	0.4	1080	31.5	CCc1cc(Nc2ncc(Cl)c(Nc3ccc(-c4nnc(C)o4)cc3P(C)(C)=O)n2)c(OC)cc1N1CCC(N2CCN(C)CC2)CC1 [Compound 45, (2-((5-Chloro-2-((5-ethyl-2-methoxy-4-(4-(4-methylpiperazin-1-yl)piperidin-1-yl)phenyl)amino)pyrimidin-4-yl)amino)-5-(5-methyl-1,3,4-oxadiazol-2-yl)phenyl)dimethylphosphine oxide]
40.5	182	0.4	1680	31.1	CCc1cc(Nc2ncc(Br)c(Nc3ccc(-c4cncc(OC)n4)cc3P(C)(C)=O)n2)c(OC)cc1N1CCC(N2CCN(C)CC2)CC1 [Compound 13]
23.4	60	0.9	771	15.5	CCc1cc(Nc2ncc(Br)c(Nc3ccc(-c4cnn(CCN5CCOCC5)c4)cc3P(C)(C)=O)n2)c(OC)cc1N1CCC(N2CCN(C)CC2)CC1 [Compound 47, (2-((5-Bromo-2-((5-ethyl-2-methoxy-4-(4-(4-methylpiperazin-1-yl)piperidin-1-yl)phenyl)amino)pyrimidin-4-yl)amino)-5-(1-(2-morpholinoethyl)-1hydro-pyrazol-4-yl)phenyl)dimethylphosphine oxide]
37.4	114	0.3	1520	36	CCOc1ncc(-c2ccc(Nc3nc(Nc4cc(CC)c(N5CCC(N6CCN(C)CC6)CC5)cc4OC)ncc3Br)c(P(C)(C)=O)c2)cn1 [Compound 76]
10.7	191	0.4	5650	18.1	CCc1cc(Nc2ncc(Br)c(Nc3ccc(-c4cnc(C5CC5)cn4)cc3P(C)(C)=O)n2)c(OC)cc1N1CCC(N2CCN(C)CC2)CC1 [Compound 79, (2-((5-Bromo-2-((5-ethyl-2-methoxy-4-(4-(4-methylpiperazin-1-yl)piperidin-1-yl)phenyl)amino)pyrimidin-4-yl)amino)-5-(5-cyclopropylpyrazin-2-yl)phenyl)dimethylphosphine oxide]
22.3	219	0.2	4640	35.5	CCc1cc(Nc2ncc(Br)c(Nc3ccc(-c4ccc(C5CC5)nn4)cc3P(C)(C)=O)n2)c(OC)cc1N1CCC(N2CCN(C)CC2)CC1 [Compound 36, (2-((5-Bromo-2-((5-ethyl-2-methoxy-4-(4-(4-methylpiperazin-1-yl)piperidin-1-yl)phenyl)amino)pyrimidin-4-yl)amino)-5-(6-cyclopropylpyridazin-3-yl)phenyl)dimethylphosphine oxide]
30.3	628	1.7	2300	47.6	CCc1cc(Nc2ncc(Br)c(Nc3ccc(-c4cn(C)c5ncccc45)cc3P(C)(C)=O)n2)c(OC)cc1N1CCC(N2CCN(C)CC2)CC1 [Compound 46, (2-((5-Bromo-2-((5-ethyl-2-methoxy-4-(-4-(4-methylpiperazin-1-yl)piperidin-1-yl)phenyl)amino)pyrimidin-4-yl)amino)-5-(1-methyl-1H-pyrrolo[2,3-b]pyridin-3-yl)phenyl)dimethylphosphine oxide]
27.6	179	0.5	1620	29.1	CCc1cc(Nc2ncc(Br)c(Nc3ccc(-c4ccc(C)nc4)cc3P(C)(C)=O)n2)c(OC)cc1N1CCC(N2CCN(C)CC2)CC1 [Compound 82, (2-((5-Bromo-2-((5-ethyl-2-methoxy-4-(4-(4-methylpiperazin-1-yl)piperidin-1-yl)phenyl)amino)pyrimidin-4-yl)amino)-5-(6-methylpyridin-3-yl)phenyl)dimethylphosphine oxide]
39.5	223	0.9	1530	38	CCc1cc(Nc2ncc(Br)c(Nc3ccc(-c4ncc(C(C)C)cn4)cc3P(C)(C)=O)n2)c(OC)cc1N1CCC(N2CCN(C)CC2)CC1 [Compound 73, (2-((5-Bromo-2-((5-ethyl-2-methoxy-4-(4-(4-methylpiperazin-1-yl)piperidin-1-yl)phenyl)amino)pyrimidin-4-yl)amino)-5-(5-isopropylpyrimidin-2-yl)phenyl)dimethylphosphine oxide]
20.5	120	0.3	831	40.8	CCc1cc(Nc2ncc(Br)c(Nc3ccc(-c4cncnc4)cc3P(C)(C)=O)n2)c(OC)cc1N1CCC(N2CCN(C)CC2)CC1 [Compound 22, (2-((5-Bromo-2-((5-ethyl-2-methoxy-4-(4-(4-methylpiperazin-1-yl)piperidin-1-yl)phenyl)amino)pyrimidin-4-yl)amino)-5-(pyrimidin-5-yl)phenyl)dimethylphosphine oxide]
15.2	118	0.2	8870	20.7	CCc1cc(Nc2ncc(Br)c(Nc3ccc(-c4ncc(OC)cn4)cc3P(C)(C)=O)n2)c(OC)cc1N1CCC(N2CCN(C)CC2)CC1 [Compound 30]
23.1	826	0.4	1450	63.4	CCc1cc(Nc2ncc(Br)c(Nc3ccc(-c4nn(C)c5ncccc45)cc3P(C)(C)=O)n2)c(OC)cc1N1CCC(N2CCN(C)CC2)CC1 [Compound 9, (2-((5-Bromo-2-((5-ethyl-2-methoxy-4-(4-(4-methylpiperazin-1-yl)piperidin-1-yl)phenyl)amino)pyrimidin-4-yl)amino)-5-(1-methyl-1H-pyrazol[3,4-b]pyridin-3-yl)phenyl)dimethylphosphine oxide]
8.2	81	0.2	4610	12.8	CCc1cc(Nc2ncc(Br)c(Nc3ccc(-c4cnc(C)cn4)cc3P(C)(C)=O)n2)c(OC)cc1N1CCC(N2CCN(C)CC2)CC1 [Compound 80, (2-((5-Bromo-2-((5-ethyl-2-methoxy-4-(4-(4-methylpiperazin-1-yl)piperidin-1-yl)phenyl)amino)pyrimidin-4-yl)amino)-5-(5-methylpyrazin-2-yl)phenyl)dimethylphosphine oxide]
